9 compounds from patent publication US20250170104A1, “INHIBITORS OF PSEUDOMONAS AERUGINOSA VIRULENCE FACTOR Lasß” (priority 2022, published 2025) can be followed below.

The nature of data set [1]: Cytotoxicity assay. Conditions: human. It is filed as cell-based. The method, then:
HepG2, HEK293 or A549 cells (2×10^5 cells per well) were seeded in 24-well, flat-bottomed plates. Culturing of cells, incubations, and OD measurements were performed as described previously (Int. J. Cancer 2007, 121, 206-210). Twenty-four hours after seeding the cells, the incubation was started by the addition of test compound in a final DMSO concentration of 1%. The living cell mass was determined after 48 h. At least two independent measurements were performed for each compound.

The target of data set [2] is HDAC8 (Homo sapiens (Human), UniProt Q9BY41). The data set can be described thus: HDAC inhibition. Conditions: read-out: Selectivity IC50 HDAC8. It is filed as biochemical. The method, then:
(§1) HDAC3 and HDAC8 Inhibitor Screening Assay kits were purchased from Sigma-Aldrich. The assay was performed according to the guidelines of the manufacturer using trichostatin as a positive control. Fluorescence signals were measured in a CLARIOstar plate reader (BMG Labtech).

The target in data set [3] is HDAC3 (Homo sapiens (Human), UniProt O15379). The data set can be described thus: HDAC inhibition. It is filed as biochemical. Conditions: read-out: Selectivity IC50 HDAC3. As for the experimental part: as §1
Data set [4] addresses MMP1 (Homo sapiens (Human), UniProt P03956). The data set can be described thus: Selectivity assay: inhibition of MMPs. Format: biochemical. The settings on record: read-out: Selectivity IC50 MMP1. The method, then: (§2) MMPs-1, -2, -3, -7, -8 and -14 along with the SensoLyte 520 Generic MMP Activity Kit*Fluorimetric* were purchased from AnaSpec (Fremont, CA, USA). The assay was performed as described previously (Schönauer E, Kany A M, Haupenthal J, Hüsecken K, Hoppe I J, Voos K, et al. Discovery of a Potent Inhibitor Class with High Selectivity toward Clostridial Collagenases. J Am Chem Soc. 2017 Sep. 13; 139(36):12696-703) using batimastat as a positive control according to the guidelines of the manufacturer.

Data set [5] addresses MMP2 (Homo sapiens (Human), UniProt P08253). Put plainly: Selectivity assay: inhibition of MMPs. It is filed as biochemical. As for the experimental part: as §2
Data set [6] concerns the target MMP3 (Homo sapiens (Human), UniProt P08254). The data set can be described thus: Selectivity assay: inhibition of MMPs. Format: biochemical. The method, then: as §2
The test system of data set [7] is P. aeruginosa PA-14. The data set can be described thus: MIC determination assay / antibacterial activity. Conditions: Pseudomonas aeruginosa, PA14. Format: cell-based. As for the experimental part: Assays regarding the determination of the minimum inhibitory concentration (MIC) were performed as described previously (Elgaher W A M, Fruth M, Groh M, Haupenthal J, Hartmann R W. Expanding the scaffold for bacterial RNA polymerase inhibitors: design, synthesis and structure-activity relationships of ureido-heterocyclic-carboxylic acids. RSC Adv. 2013 Dec. 3; 4(5):2177-94). The experiments were based on the P. aeruginosa strain PA14. For the case that no MIC value could be determined due to activity reasons, percentage (%) inhibition at 100 μM (or lower, depending on the solubility of the compounds) was calculated. The OD600 was measured 0 and 16 h after inhibitor addition in a CLARIOstar Platereader (BMG Labtech, Ortenberg, Germany).

Data set [8] addresses ADAM-17 (TACE) (Homo sapiens (Human), UniProt P78536). Put plainly: ADAM-17 (TACE) inhibitor screening assay. Format: biochemical. Conditions: read-out: Selectivity IC50 TACE. As for the experimental part:
The ADAM-17 (TACE) Inhibitor Screening Assay Kit was purchased from Sigma-Aldrich. The assay was performed according to the guidelines of the manufacturer using ilomastat as a positive control. Fluorescence signals were measured in a CLARIOstar plate reader (BMG Labtech).

The target in data set [9] is LasB (Pseudomonas aeruginosa (strain ATCC 15692 / DSM 22644 / CIP 104116 / JCM 14847 / LMG 12228 / 1C / PRS 101 / PAO1), UniProt P14756). The data set can be described thus: In vitro LasB activity assay (fluorogenic substrate). It is filed as biochemical. The settings on record: LasB 0.3 nM, substrate 150 μM, mean ± SD. The method, then: The LasB activity assay was performed as described previously (Nishino N, Powers J C. Pseudomonas aeruginosa elastase. Development of a new substrate, inhibitors, and an affinity ligand. J Biol Chem. 1980 Apr. 25; 255(8):3482-6) using the fluorogenic substrate 2-Aminobenzoyl-L-Alanyl-Glycyl-L-Leucyl-L-Alanyl-para-Nitro-Benzyl-Amide, purchased from Peptides International (Louisville, KY, USA) and vivitide, LLC (Gardner, MA, USA).
Fluorescence intensity was measured for 60 min at 37° C. in black 384-well microtiter plates (Greiner BioOne, Kremsmünster, Austria) using a CLARIOstar microplate reader (BMG Labtech, Ortenberg, Germany) with an excitation wavelength of […] and an emission wavelength of 415±20 nm. The assay was performed in a final volume of 50 μL of assay buffer (50 mM Tris, pH 7.2, 2.5 mM CaCl2), 0.075% Pluronic F-127, 5% DMSO) containing LasB at a final concentration of […] 0.3 nM and the substrate at 150 μM. Before substrate addition, compounds were preincubated with the enzyme at 37° C. for 15 min. Experiments were performed in duplicates and repeated for at least two times. Blank controls without enzyme were performed. After blank subtraction, the slope of samples containing inhibitors (v) was divided by the slope of a simultaneously started uninhibited enzymatic reaction (v0). IC50 values were determined with nonlinear regression using GraphPad Prism 5 (Graph Pad Software, San Diego, CA, USA) and are given as mean values ±standard deviation (SD). The slope factor was constrained to 1.

Data set [10] is described as follows: in vitro. It is filed as in vitro ADME. Conditions: mouse, s9. As for the experimental part:
For the evaluation of combined phase I and phase II metabolic stability, the compound (1 μM) was incubated with 1 mg/mL pooled liver S9 fraction (Xenotech), 2 mM NADPH, 1 mM UDPGA, 10 mM MgCl2, 5 mM GSH and 0.1 mM PAPS at 37° C. for 0, 5, 15, 30 and 60 min. The metabolic stability of Testosterone (1 μM), verapamil (1 μM) and ketoconazol (1 μM) were determined in parallel to confirm the enzymatic activity of the S9 fraction. The incubation was stopped by precipitation of S9 enzymes with 2 volumes of cold acetonitrile containing internal standard (150 nM Diphenhydramine). Samples were stored on ice for 10 min and precipitated protein was removed by centrifugation (15 min, 4° C., 4,000 rpm). The remaining test compound at different time points was analyzed by LC-MS/MS (TSQ Quantum Access MAX, Thermo Fisher, Dreieich, Germany) and used to determine half-life (t½).

Data set [11] can be described thus: Kinetic turbidimetric solubility assay. Format: physicochemical. Conditions: PBS, aqueous buffer, kinetic from dmso stock. The method, then: The desired compounds were sequentially diluted in DMSO in a 96-well plate. 1.5 μL of each well were transferred into another 96-well plate and mixed with 148.5 μL of PBS. Plates were shaken for 5 min at 600 rpm at room temperature, and the absorbance at 620 nm was measured. Absorbance values were normalized by blank subtraction and plotted using GraphPad Prism 8.4.2 (GraphPad Software, San Diego, CA, USA). Solubility (S) was determined based on the First X value of AUC function using a threshold of 0.005.

In data set [12] the test system is P. aeruginosa PAO1 (strain DSM22644). The data set can be described thus: G. mellonella larvae survival after PAO1 infection. The settings on record: for Final survival percentage of larvae: 3 CFU/Larva, 24 h. Format: in vivo. The method, then: Bacteria were grown overnight, diluted to OD600 of 0.025 in 10 ml medium, and grown for approx. 2 hours at 37° C. inside a shaker incubator until the OD600 of 1.8-2 is reached. The culture was then serially diluted in sterile PBS (pH=7.2). Bacterial densities of 3000, 300, 30, and 3 CFU/Larva were selected for injection into groups of 15 larvae. A total volume of 5 μl was injected into each larva via the hindmost left proleg by using a syringe pump and Sterican® needles (0.30×12 mm, 30G×½). In addition, control group without injection for the quality of the larvae and a PBS control to monitor the effect of the injection were included in the experiment. All test groups and control groups were incubated at 37° C. in the dark and monitored every 2 hours from 17 hours post-infection.
In vivo evaluation of compounds 162 and 169. Bacteria were cultured and prepared according to the previous section. Final concentrations of 50 μM, 25 μM, and 12.5 μM in combination with 3 CFU/Larva were injected into groups of 15 larvae. In addition to no injection and PBS controls, one group was infected with 3 CFU/Larva and considered the negative control. All test groups and control groups were incubated at 37° C. in the dark and monitored every 2 hours from 17 hours post-infection.

SMILES strings stand for the structures. Converted amounts (≈) assume the structure as drawn.

Chain of LasB (P14756 198-498): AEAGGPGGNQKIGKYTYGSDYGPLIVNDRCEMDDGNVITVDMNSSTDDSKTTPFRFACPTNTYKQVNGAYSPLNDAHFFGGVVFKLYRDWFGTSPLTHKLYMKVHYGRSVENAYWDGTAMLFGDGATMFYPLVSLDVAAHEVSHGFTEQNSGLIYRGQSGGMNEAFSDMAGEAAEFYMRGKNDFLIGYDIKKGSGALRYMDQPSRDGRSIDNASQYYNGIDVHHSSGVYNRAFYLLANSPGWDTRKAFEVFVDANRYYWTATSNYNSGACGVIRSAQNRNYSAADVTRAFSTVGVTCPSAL
Chain of MMP2 (P08253 110-660): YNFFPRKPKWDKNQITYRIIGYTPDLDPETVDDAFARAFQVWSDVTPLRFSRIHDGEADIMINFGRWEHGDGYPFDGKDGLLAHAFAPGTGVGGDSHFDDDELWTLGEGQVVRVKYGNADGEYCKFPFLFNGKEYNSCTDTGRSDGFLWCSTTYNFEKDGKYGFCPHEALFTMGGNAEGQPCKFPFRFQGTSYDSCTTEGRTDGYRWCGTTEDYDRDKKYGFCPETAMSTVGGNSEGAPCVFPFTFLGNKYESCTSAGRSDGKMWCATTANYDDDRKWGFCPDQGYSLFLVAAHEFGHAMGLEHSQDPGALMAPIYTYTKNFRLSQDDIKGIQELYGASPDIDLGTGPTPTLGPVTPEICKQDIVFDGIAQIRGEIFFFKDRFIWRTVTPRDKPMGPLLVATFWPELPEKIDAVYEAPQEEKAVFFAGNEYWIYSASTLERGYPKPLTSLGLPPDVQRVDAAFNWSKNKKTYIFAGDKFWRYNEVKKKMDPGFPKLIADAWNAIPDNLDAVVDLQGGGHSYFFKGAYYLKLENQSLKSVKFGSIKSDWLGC
Chain of HDAC3 (O15379 whole entry, looked up): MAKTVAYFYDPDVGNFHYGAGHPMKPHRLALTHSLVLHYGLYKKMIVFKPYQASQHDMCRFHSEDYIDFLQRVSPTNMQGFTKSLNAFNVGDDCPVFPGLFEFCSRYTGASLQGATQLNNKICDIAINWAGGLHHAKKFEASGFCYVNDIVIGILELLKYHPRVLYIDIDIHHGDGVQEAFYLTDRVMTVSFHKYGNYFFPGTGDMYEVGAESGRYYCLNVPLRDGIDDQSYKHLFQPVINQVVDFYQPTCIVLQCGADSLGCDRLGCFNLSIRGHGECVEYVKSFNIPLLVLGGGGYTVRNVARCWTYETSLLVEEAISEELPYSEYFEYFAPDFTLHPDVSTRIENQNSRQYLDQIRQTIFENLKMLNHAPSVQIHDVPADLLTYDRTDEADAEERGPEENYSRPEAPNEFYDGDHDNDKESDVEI
Chain of HDAC3 (Q9Y618 whole entry partner, looked up): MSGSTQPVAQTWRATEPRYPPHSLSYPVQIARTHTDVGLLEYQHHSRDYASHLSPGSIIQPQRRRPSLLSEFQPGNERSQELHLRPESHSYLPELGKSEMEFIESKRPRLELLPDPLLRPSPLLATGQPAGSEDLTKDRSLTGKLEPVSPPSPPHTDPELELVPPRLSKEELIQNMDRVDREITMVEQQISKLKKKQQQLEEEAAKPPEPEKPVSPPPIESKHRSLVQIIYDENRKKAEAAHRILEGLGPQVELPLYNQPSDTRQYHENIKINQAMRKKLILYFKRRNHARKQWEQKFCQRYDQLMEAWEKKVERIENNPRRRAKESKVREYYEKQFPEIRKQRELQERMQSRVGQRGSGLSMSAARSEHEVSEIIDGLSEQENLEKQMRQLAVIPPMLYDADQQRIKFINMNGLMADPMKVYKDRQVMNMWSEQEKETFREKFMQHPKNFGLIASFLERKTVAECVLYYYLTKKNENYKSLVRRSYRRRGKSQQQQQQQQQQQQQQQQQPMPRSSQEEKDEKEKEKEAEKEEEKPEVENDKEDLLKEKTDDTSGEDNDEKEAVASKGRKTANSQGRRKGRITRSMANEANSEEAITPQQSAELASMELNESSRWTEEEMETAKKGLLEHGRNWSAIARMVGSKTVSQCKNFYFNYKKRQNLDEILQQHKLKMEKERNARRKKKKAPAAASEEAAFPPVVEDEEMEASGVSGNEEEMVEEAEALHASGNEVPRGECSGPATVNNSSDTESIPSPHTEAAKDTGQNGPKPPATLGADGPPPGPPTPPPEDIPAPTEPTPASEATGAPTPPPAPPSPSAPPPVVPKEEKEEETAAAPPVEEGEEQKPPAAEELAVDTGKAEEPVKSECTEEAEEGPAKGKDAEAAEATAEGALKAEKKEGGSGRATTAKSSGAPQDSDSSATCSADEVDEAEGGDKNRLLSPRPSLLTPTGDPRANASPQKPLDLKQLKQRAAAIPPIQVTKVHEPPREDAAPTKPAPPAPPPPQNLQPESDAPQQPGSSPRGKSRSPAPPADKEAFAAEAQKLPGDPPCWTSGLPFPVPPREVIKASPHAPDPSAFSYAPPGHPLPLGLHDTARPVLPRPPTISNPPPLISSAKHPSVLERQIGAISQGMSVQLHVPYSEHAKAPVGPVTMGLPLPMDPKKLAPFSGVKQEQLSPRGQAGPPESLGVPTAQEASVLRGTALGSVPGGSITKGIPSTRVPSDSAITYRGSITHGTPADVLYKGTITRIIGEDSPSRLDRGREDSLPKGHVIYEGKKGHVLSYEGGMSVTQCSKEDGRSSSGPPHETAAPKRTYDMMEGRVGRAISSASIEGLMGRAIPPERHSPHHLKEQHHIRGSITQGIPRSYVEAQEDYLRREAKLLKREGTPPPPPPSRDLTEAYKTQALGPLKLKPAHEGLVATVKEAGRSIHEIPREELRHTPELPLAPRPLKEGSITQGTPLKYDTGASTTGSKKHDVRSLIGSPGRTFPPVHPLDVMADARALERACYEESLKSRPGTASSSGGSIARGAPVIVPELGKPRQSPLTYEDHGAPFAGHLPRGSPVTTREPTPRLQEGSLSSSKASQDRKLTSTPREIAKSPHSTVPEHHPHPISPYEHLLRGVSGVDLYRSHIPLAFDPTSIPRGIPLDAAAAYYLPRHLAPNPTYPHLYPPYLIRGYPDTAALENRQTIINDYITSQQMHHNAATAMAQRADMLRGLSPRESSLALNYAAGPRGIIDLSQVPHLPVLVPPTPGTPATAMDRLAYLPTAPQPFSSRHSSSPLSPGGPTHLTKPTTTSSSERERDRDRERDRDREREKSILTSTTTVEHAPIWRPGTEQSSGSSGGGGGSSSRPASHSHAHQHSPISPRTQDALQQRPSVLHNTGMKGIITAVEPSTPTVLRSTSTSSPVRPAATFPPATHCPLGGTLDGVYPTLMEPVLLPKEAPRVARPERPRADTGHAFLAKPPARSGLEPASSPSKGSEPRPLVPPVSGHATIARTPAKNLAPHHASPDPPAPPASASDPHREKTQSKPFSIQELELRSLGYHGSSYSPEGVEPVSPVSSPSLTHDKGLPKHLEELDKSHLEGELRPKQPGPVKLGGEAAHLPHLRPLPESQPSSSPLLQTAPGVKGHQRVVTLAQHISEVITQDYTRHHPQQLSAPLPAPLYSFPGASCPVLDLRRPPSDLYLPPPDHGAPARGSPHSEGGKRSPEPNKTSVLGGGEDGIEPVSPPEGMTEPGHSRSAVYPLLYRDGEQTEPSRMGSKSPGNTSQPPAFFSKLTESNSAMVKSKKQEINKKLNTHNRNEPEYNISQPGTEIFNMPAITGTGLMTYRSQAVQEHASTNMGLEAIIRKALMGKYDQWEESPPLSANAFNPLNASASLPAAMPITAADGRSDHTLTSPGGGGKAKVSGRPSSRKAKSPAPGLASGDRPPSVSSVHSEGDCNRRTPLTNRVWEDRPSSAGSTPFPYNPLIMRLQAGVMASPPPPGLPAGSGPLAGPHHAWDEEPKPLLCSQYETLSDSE
Chain of MMP3 (P08254 100-477): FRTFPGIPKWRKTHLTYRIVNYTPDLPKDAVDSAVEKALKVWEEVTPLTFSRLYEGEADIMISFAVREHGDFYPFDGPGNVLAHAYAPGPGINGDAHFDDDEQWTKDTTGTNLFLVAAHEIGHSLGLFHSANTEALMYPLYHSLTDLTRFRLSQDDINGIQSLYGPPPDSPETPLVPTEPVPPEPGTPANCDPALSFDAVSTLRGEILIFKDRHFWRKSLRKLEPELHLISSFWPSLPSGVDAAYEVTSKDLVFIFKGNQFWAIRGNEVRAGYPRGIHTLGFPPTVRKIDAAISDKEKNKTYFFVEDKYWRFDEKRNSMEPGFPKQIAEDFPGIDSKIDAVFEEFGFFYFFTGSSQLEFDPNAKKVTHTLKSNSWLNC
Chain of MMP1 (P03956 100-469): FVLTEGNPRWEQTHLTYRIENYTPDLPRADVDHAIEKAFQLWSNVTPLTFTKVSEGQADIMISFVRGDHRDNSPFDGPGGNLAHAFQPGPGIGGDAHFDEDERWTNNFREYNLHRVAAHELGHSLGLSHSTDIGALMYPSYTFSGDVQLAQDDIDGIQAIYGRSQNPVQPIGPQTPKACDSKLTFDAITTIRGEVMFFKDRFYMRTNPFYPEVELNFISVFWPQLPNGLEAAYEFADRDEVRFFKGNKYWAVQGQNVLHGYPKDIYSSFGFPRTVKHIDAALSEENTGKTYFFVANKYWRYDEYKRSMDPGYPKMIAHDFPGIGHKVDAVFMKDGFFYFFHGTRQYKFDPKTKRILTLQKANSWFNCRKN
Chain of HDAC8 (Q9BY41 whole entry): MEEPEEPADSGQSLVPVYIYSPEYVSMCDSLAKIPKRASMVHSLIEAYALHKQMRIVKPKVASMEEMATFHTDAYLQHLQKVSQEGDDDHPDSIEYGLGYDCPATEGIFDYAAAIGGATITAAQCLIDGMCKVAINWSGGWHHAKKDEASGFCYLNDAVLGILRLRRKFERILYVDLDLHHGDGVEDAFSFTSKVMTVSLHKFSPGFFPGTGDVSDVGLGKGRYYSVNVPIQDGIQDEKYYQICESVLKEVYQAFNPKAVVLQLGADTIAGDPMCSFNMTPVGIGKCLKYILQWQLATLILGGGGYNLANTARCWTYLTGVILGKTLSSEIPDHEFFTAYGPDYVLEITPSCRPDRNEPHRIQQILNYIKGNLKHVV

By IC50 is commonly meant the concentration needed to halve the response being measured. For `CC(C)CC(C(=O)NO)C(=O)Nc1ccc(CN=[N+]=[N-])cc1` (centres unmarked) [Compound Z9, N-[4-(Azidomethyl)phenyl]-2-(hydroxycarbamoyl)-4-methyl-pentanamide], the half-inhibitory concentration (IC50) at 48 h in data set [1] (A549 cells), in data set [1] (HEK293 cells) and in data set [1] (HepG2 cells) was above 100000 nM in each case. Moreover, the IC50 in data set [2], in [3], in [4], in data set [5], in data set [6] and in data set [7] was above 100000 nM each time. The IC50 in data set [8] is 1600 ± 200 nM; in data set [9] it was 16.9 ± 0.6 nM.

As a reminder, the half-life is the time needed for the level to fall by half in the phase considered. For orientation: solubility means the dissolved amount per volume that the medium holds. Read a low solubility as a poorly soluble substance. In data set [10], `CC(C)CC(C(=O)NO)C(=O)Nc1ccc(Cn2cc(CNS(=O)(=O)c3ccc(Cl)c(Cl)c3)nn2)cc1` (centres unmarked) [Compound 165, N-[4-[[4-[[(3,4-Dichlorophenyl)sulfonylamino]methyl]triazol-1-yl]methyl]phenyl]-2-(hydroxycarbamoyl)-4-methyl-pentanamide] registered a half-life at 1 μM of 10.7 ± 0.6 min. Besides, the solubility at 5 min in data set [11] came out at 117 µM (≈ 66.6 µg/mL). For the same compound, in [9], half-maximal inhibition (IC50) was put at 1.6 ± 0.1 nM.

In data set [10], `CC(C)CC(C(=O)NO)C(=O)Nc1ccc(Cn2cc(CSc3ccc(Cl)cc3)nn2)cc1` (centres unmarked) [Compound 136, N-[4-[[4-[(4-Chlorophenyl)sulfanylmethyl]triazol-1-yl]methyl]phenyl]-2-(hydroxycarbamoyl)-4-methyl-pentanamide] had a half-life at 1 μM of 3.3 ± 0.2 min. This compound showed a solubility at 5 min in data set [11] below 200 µM. Also, in data set [9], the midpoint of inhibition, the IC50, lay at 1.4 ± 0.1 nM.

The compound `CC(C)CC(C(=O)NO)C(=O)Nc1ccc(Cn2cc(CN(C)S(=O)(=O)c3ccc(I)cc3)nn2)cc1` (centres unmarked) [Compound 131, 2-(Hydroxycarbamoyl)-N-[4-[[4-[[(4-iodophenyl)sulfonyl-methyl-amino]methyl]triazol-1-yl]methyl]phenyl]-4-methyl-pentanamide] displayed a half-life at 1 μM in [10] of 37.5 ± 2.5 min. Moreover, the solubility at 5 min in [11] is below 200 µM. In data set [9], this compound registered an IC50 of 2.3 ± 0.1 nM.

As to `CC(C)CC(C(=O)NO)C(=O)Nc1ccc(Cn2cc(CNS(=O)(=O)c3ccc(NC(=O)OC(C)(C)C)cc3)nn2)cc1` (centres unmarked) [Compound 208, tert-butyl N-[4-[[1-[[4-[[2-(hydroxycarbamoyl)-4-methyl-pentanoyl]amino]phenyl]methyl]triazol-4-yl]methylsulfamoyl]phenyl]carbamate], inhibition in [9] was half-maximal at 4.2 ± 0.2 nM (IC50).

In turn, `CC(C)CC(C(=O)NO)C(=O)Nc1ccc(Cn2cc(CNS(=O)(=O)CC34CCC(CC3=O)C4(C)C)nn2)cc1` (centres unmarked) [Hit L2, N-[4-[[4-[[(7,7-Dimethyl-2-oxo-norbornan-1-yl)methylsulfonylamino]methyl]triazol-1-yl]methyl]phenyl]-2-(hydroxycarbamoyl)-4-methyl-pentanamide] returned an IC50 in data set [9] of 5.3 ± 0.1 nM.

Regarding `COCCOc1ccc(S(=O)(=O)NCc2cn(Cc3ccc(NC(=O)C(CC(C)C)C(=O)NO)cc3)nn2)cc1` (centres unmarked) [Compound 205, 2-(hydroxycarbamoyl)-N-[4-[[4-[[[4-(2-methoxyethoxy)phenyl]sulfonylamino]methyl]triazol-1-yl]methyl]phenyl]-4-methyl-pentanamide], in [9], the IC50 was 29.5 ± 0.7 nM.

In data set [9], `CC(C)CC(C(=O)NO)C(=O)Nc1ccc(Cn2cc(CNS(=O)(=O)c3ccc(OC(C)C)cc3)nn2)cc1` (centres unmarked) [Compound 206, 2-(hydroxycarbamoyl)-N-[4-[[4-[[(4-isopropoxyphenyl)sulfonylamino]methyl]triazol-1-yl]methyl]phenyl]-4-methyl-pentanamide] returned an IC50 of 7.8 ± 0.3 nM.

In [9], `COc1ccc(S(=O)(=O)NCc2cn(Cc3ccc(NC(=O)C(CC(C)C)C(=O)NO)cc3)nn2)cc1` (centres unmarked) [Compound 162, 2-(Hydroxycarbamoyl)-N-[4-[[4-[[(4-methoxyphenyl)sulfonylamino]methyl]triazol-1-yl]methyl]phenyl]-4-methyl-pentanamide] showed a half-inhibitory concentration (IC50) of 1.9 ± 0.1 nM. The entries for the “Final survival percentage of larvae” value in [12] (12.5 μM), in data set [12] (25 μM) and in data set [12] (50 μM) were 58%, 64% and 84%, respectively. The “Improvement in survival of larvae compared to negative control” value in [12] (50 μM, vs 3 CFU/Larva without treatment) is 40%.
